Experimental findings from the Bradley open melting point set (2014) are described below.

Where “and” joins values, the source holds several entries; their conditions need not be identical. Identical values can stand only once.

What is called melting point is the temperature of the solid-liquid transition. For `Cc1n[nH]c(=S)[nH]c1=O` [6-aza-2-thiothymine], the melting point is 220 °C.
`O=[N+]([O-])c1ccc(O)c([N+](=O)[O-])c1` [2,4-dinitrophenol] gave a melting point of 108 °C.
In turn, `O=C1NC(=O)C(c2ccccc2)(c2ccccc2)N1` [Phenytoin] yielded a melting point of 286 °C.
Molecule `Cc1cccc(C(=O)O)c1` [3-Methylbenzoic acid] yielded a melting point of 112 °C.
Next, `O=C(O)Cc1ccccc1O` [2-Hydroxyphenylacetic acid]: 149 °C; `C#CC(C)(C)C` [3,3-dimethyl-1-butyne]: -78 °C; `CC(O)C(C)O` (centres undefined) [2,3-butanediol]: 25 °C.
`OC[C@H]1O[C@H](O[C@H]2[C@H](O)[C@@H](O)[C@@H](O[C@H]3[C@H](O)[C@@H](O)C(O)O[C@@H]3CO)O[C@@H]2CO)[C@H](O)[C@@H](O)[C@@H]1O` (some centres undefined) displayed a melting point of 133 °C.
The result for `Cc1c(C(=O)OCC(N)=O)cnn1-c1ccccc1` [OSM-S-57] reads 154 °C; that for `FC(F)(F)c1ccc(Cl)cc1` [4-chlorobenzotrifluoride], -36 °C.
Next, `COc1cccc2c1C(=O)c1c(O)c3c(c(O)c1C2=O)C[C@@](O)(C(=O)CO)C[C@@H]3O[C@H]1C[C@H](N)[C@H](O)[C@H](C)O1` [Doxorubicin]: 204 °C; `CCCCCCBr` [1-bromohexane]: -85 °C; `S=C=NC(c1ccccc1)(c1ccccc1)c1ccccc1` [triphenylmethyl isothiocyanate]: 135 °C.
Next, `COC(=O)c1ccccc1OC(C)=O` [methyl_2-acetoxybenzoate]: 52 °C; `C=C[C@H]1C[N@@]2CC[C@H]1C[C@@H]2[C@@H](O)c1ccnc2ccccc12` [cinchonine]: 258 °C; `CCCCCCCC/C=C/CCCCCCCC(=O)O` [elaidic acid]: 43 °C.
On to `O=C(O)COc1ccccc1` [phenoxyacetic acid], for which the melting point stood at 100 °C.
As for `O=C(O)Cc1cccc(I)c1` [3-iodophenylacetic acid], the melting point turned out to be 130 °C.
Regarding `CCOC(=O)c1cc2c(oc1=O)-c1ccc(OC)cc1CC2`, the melting point was 142 °C.
`Nc1cc(Cl)ccc1O` [5-chloro-2-hydroxyaniline] displayed a melting point of 143 °C.
Next, `C=CCCCCC(=O)O` [6-heptenoic acid]: -6 °C; `O=C(O)c1cc2ccccc2oc1=O` [coumarin-3-carboxylic acid]: 192 °C; `CC(C)c1ccccc1B(O)O` [2-isopropylbenzeneboronic acid]: 86 °C.
The result for `Clc1ccccc1C(c1ccccc1)(c1ccccc1)n1ccnc1` [clotrimazole] reads 147 °C; that for `Nc1cccc2ccc(O)cc12` [8-amino-2-naphthol], 208 °C; that for `Cc1cc(C)nc(NS(=O)(=O)c2ccc(N)cc2)n1` [Sulfamethazine], 196 °C.
Next, `c1ccc(CCc2ccccc2)cc1` [bibenzyl]: 55 °C; `CCC(C)c1ccccc1` (centres undefined) [sec-butylbenzene]: -75 °C; `COC(=O)c1ccccc1C(=O)OC` [Dimethyl phthalate]: 2 °C.
For the molecule `Nc1ccccc1` [aniline], the melting point was -6 °C.
Next, `CC12CCC3C(C(=O)CC4CC(=O)CCC43C)C1CCC2=O` (centres undefined) [androstane-3,7,17-trione]: 232 °C.
The result for `O=C(O)c1cc([N+](=O)[O-])ccc1Cl` [2-chloro-5-nitrobenzoic acid] reads 166 °C; that for `CCOC(=O)/C(=N\Nc1ccccc1)C(=O)C(F)(F)F`, 81 °C; that for `CCCCCCCl` [1-Chlorohexane], -94 °C.
The result for `CCNc1nc(NC(C)(C)C)nc(SC)n1` reads 104 °C.
In the case of `Cc1ccccc1N` [o-Toluidine], the melting point is -16 °C.
Next, `CN(C)CCOc1ccc(/C(=C(/CCCl)c2ccccc2)c2ccccc2)cc1` [Toremifene]: 109 °C.
The result for `O=C1NC(=O)C(c2ccccc2)(c2ccccc2)N1` [phenytoin] reads 296 °C and 295 °C; that for `CCOC(=O)Cc1ccccc1` [ethyl phenylacetate], -29 °C; that for `C=COCC` [Ethoxyethene], -115 °C.
Next, `COc1cc([C@@H]2c3cc4c(cc3[C@@H](O[C@@H]3O[C@@H]5CO[C@@H](C)O[C@H]5[C@H](O)[C@H]3O)[C@H]3COC(=O)[C@H]23)OCO4)cc(OC)c1O` [Etoposide]: 244 °C.
In turn, `c1ccsc1` [Thiophene] had a melting point of -38 °C.
Next, `COc1cc(C(=O)NCCCCCC(=O)O)cc(OC)c1OC` [capobenicacid]: 121 °C.
For the molecule `CC(C)(O)CCc1ccccc1` [4-phenyl-2-methyl-2-butanol], the melting point was 32 °C.
In turn, `O=C1c2ccccc2-c2cccc3cccc1c23` [7h-benz[de]anthracen-7-one] showed a melting point of 173 °C.
The result for `NC12CC3CC(CC(C3)C1)C2` [1-adamantylamine] reads 180 °C; that for `IC(I)I` [iodoform], 122 °C; that for `O=C(O)c1ccccc1OP(=O)(O)O` [fosfosal], 168 °C.
The result for `Cc1ccc(N)c(N)c1` [3,4-diaminotoluene] reads 88 °C; that for `O=C(O)c1ccccc1-c1ccccc1` [o-phenylbenzoic_acid], 115 °C; that for `CCC(C)(C)Cl` [2-chloro-2-methylbutane], -73 °C.
Next, `c1ccc2c(c1)ccc1cc3c(ccc4ccccc43)cc12` [dibenz[a,h]anthracene]: 270 °C; `CC(C)(C)c1ccc(-c2ccc(Br)cc2)cc1` [4-bromo-4'-tert-butylbiphenyl]: 142 °C; `CC(Cc1ccccc1)c1ccccc1` (centres undefined) [1,2-diphenylpropane]: 0 °C.
Molecule `OCCCCCCCCCCO` [1,10-decanediol] had a melting point of 73 °C.
Regarding `CC(C)(C)c1ccc(C2CCC3(CC2)Cc2ccc(O)cc2C3)cc1` (centres undefined), the melting point is 131 °C.
Next, `COc1ccc(Nc2ccc(OC)cc2)cc1` [4,4'-dimethoxydiphenylamine]: 102 °C.
Next, `CCCCCCCCCCCCCCCC(=O)OC[C@H](O)[C@H]1OC(=O)C(O)=C1O` [L-ascorbic acid 6-palmitate]: 114 °C; `O=C(N[C@@H](Cc1ccccc1)C(=O)O)OCc1ccccc1` [N-benzyloxycarbonyl-l-phenylalanine]: 86 °C; `C=CCCCCCC` [1-octene]: -102 °C.
The result for `CC(=O)C1=CC[C@H]2[C@@H]3CC(=O)C4=C[C@@H](O)CC[C@]4(C)[C@H]3CC[C@]12C` [3β-Hydroxypregna-4,16-diene-6,20-dione] reads 169 °C.
Regarding `CCCNCCC` [di-n-propylamine], the melting point was -63 °C.
The result for `CCCC(O)(CCC)C1(C)CCC(C(=O)O)C(C)(C)O1` (centres undefined) reads 112 °C; that for `CCOC(=O)C(NC(=O)c1ccccc1)C(=O)OCC` [diethyl benzamidomalonate], 63 °C.
The molecule `Nc1ccc(C(=O)O)cc1` [4-Aminobenzoic acid] displayed a melting point of 188 °C.
Next, `COc1cc(NS(=O)(=O)c2ccc(N)cc2)nc(OC)n1` [sulfadimethoxine]: 204 °C; `ClC(Cl)C(Cl)(Cl)Cl` [pentachloroethane]: -29 °C.
The result for `OC[C@@H](O)[C@@H](O)[C@H](O)[C@H](O)CO` [mannitol] reads 168 °C.
For the molecule `O=C1c2ccccc2C(=O)c2c(Cl)cccc21` [1-chloroanthraquinone], the melting point was determined as 160 °C.
Next, `Cc1ccc(Cc2ccccc2)cc1` [4-methyldiphenylmethane]: 5 °C.
The result for `C=C[C@H]1C[N@@]2CC[C@H]1C[C@@H]2[C@@H](O)c1ccnc2ccc(OC)cc12` [quinidine] reads 174 °C; that for `CC1CCCCC1` [methylcyclohexane], -126 °C; that for `c1ccc2c(c1)ccc1c3ccccc3ccc21` [chrysene], 254 °C.
The result for `OB(O)c1ccoc1` [furan-3-boronic acid] reads 142 °C.
With `COc1ccccc1Br` [2-bromoanisole], the melting point is 3 °C.
Next, `O=C1CC(=O)NC(=O)N1` [Barbituric acid]: 248 °C.
Next, `O=C(O)c1cccc(Cl)c1` [3-chlorobenzoic acid]: 157 °C; `N=c1nc(O)c2ncn(COCCO)c2[nH]1` [Acyclovir]: 255 °C.
Next, `O=C(O)COc1cccnc1` [3-pyridyloxyacetic acid]: 211 °C; `CC(C(=O)O)c1ccc(-c2ccccc2)c(F)c1` (centres undefined) [flurbiprofen]: 110 °C.
`CCCCCCCCCCCCCCCCCCCCCCCCCCCCCCCCC` [Tritriacontane] returned a melting point of 72 °C.
The result for `CN1CCCN(C)CCN(C)CCCN(C)CC1` [1,4,8,11-tetramethyl-1,4,8,11-tetraazacyclotetradecane] reads 35 °C.
In turn, `CCOC(=O)c1cc(C)nn1C(=O)OCC` [diethyl 3-methyl-1H-pyrazole-1,5-dicarboxylate] displayed a melting point of 81 °C.
Next, `Cc1nnc(SCC2=C(C(=O)O)N3C(=O)[C@@H](NC(=O)Cn4cnnn4)[C@H]3SC2)s1` [cefazolin]: 190 °C; `CCCCc1c2c(cc3c1-c1ccccc1OC3)CCCC2=O` [12-Butyl-9,10-dihydro-6H-naphtho[2,3-c]chromen-11(8H)-one]: 91 °C; `NS(=O)(=O)c1c(F)cccc1F` [2,6-difluorobenzenesulfonamide]: 190 °C.
The result for `OCC(O)c1ccccc1` (centres undefined) [styrene glycol] reads 68 °C; that for `CC(C)CCCC(C)C1CCC2C3CC=C4CC(Cl)CCC4(C)C3CCC12C` (centres undefined) [3-chlorocholest-5-ene], 93 °C.
The result for `CC1(C)C2CCC1(C)C(O)/C2=C\CC(=O)O` (centres undefined) reads 52 °C.
